Test results taken from patent US20040063686A1, “Carboxamide compounds and their use as antagonists of a human 11cby receptor” (priority 2000, published 2004).

Target: T1, 11CBy receptors (Homo sapiens, UniProt Q99705)
T1 construct: expressed in transfected cells; washed membranes
Experiment: Radioligand binding assay, [125I]-Melanin Concentrating Hormone competition on membranes from HEK293 cells stably expressing 11CBy receptors
Conditions: [125I]-MCH 0.22 nM, 45 min at 37° C.; for Ki: pH 7.4, pKi calculated from IC50, read-out: pKi range (converted)
Description: The activity of the compounds used in this invention may be assessed by competitive binding assays to 11CBy receptors, as follows:
Radioligand Binding Studies
Radioligand binding assays were carried out on well washed membranes from HEK293 cells stably expressing 11CBy receptors. […] Non-specific binding was defined using 0.1 mM Melanin Concentrating Hormone (obtained from Bachem). The test compounds were added at concentrations between […] and 10 pM in 10 concentration steps. Following incubation, the reaction was stopped by filtration through GF/B filters and washed with 4×1 ml of ice-cold 50 mM Tris buffer. Microscint 20 (Packard) was added to the filters and the radioactivity measured using a Packard TopCount.
Bound cpm in the presence of test compound was expressed as a fraction of the bound cpm in the absence of test compound and plotted against the concentration of compound. From this an IC50 was determined from which the pKi was calculated.

T1 sequence (Q99705 whole entry): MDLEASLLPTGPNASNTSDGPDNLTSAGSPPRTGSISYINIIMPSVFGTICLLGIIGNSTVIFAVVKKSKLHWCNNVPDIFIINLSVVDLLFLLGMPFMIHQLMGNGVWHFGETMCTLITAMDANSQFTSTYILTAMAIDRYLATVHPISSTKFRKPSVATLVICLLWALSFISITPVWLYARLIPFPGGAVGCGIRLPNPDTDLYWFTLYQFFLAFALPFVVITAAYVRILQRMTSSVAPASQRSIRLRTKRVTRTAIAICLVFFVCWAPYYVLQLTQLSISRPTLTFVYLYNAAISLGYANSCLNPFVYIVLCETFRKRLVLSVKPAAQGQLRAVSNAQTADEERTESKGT

Row | Ki [nM] | Molecule | pKi range (pH 7.4, pKi calculated from IC50)
1 | 39.8 to 79.4 | COc1cc(NC(=O)c2ccc(-c3ccccc3)nc2)ccc1OCCN(C(C)C)C(C)C [Example F4] | 
2 | 39.8 to 79.4 | COc1cc(NC(=O)c2ccc(C3CCCCC3)cc2)ccc1N1CCN(C)CC1 [Example H1, 4-Cyclohexyl-N-[3-methoxy-4-(4-methyl-piperazin-1-yl)-phenyl]-benzamide] | 

The remaining lines, values behind:

Row | Molecule | Ki [nM] | pKi range (pH 7.4, pKi calculated from IC50)
3 | COc1cc(NC(=O)c2ccc(C3CCCCC3)cc2)ccc1OC[C@@H]1CCCN1C [Example A48] | 15.8 to 31.6 | 
4 | COc1cc(NC(=O)c2ccc(-c3ccccc3)cc2Cl)ccc1OCCN(C(C)C)C(C)C [Example C8] | 39.8 to 79.4 | 
5 | CCN(CC)CCOc1ccc(N(C)C(=O)c2ccc(-c3ccccc3)cc2)cc1OC [Example E9, Biphenyl-4-carboxylic acid [4-(2-diethylamino-ethoxy)-3-methoxy-phenyl]-methyl-amide] | 15.8 to 31.6 | 
6 | Biphenyl-4-carboxylic acid [4-((R)-diethylamino-hydroxy-propoxy)-3-methoxy-phenyl]-amide [Example G1] |  | 7.1-7.4
